Test results taken from PubChem BioAssay AID179 (DTP/NCI, 2004).
Active and inactive are the calls of the source.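 The calls were made as follows: active = compounds giving half or more protection of infected cells from virus-caused growth loss, again on retest; inactive = the rest.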

Test system: CEM cells HIV-1 protection, formazan growth assay
Assay: NCI AIDS Antiviral Assay
Conditions: for IC50: measured here: growth of uninfected CEM cells
Procedure, shortened: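 Protection of CEM cells against HIV-1 was scored from cell growth (soluble formazan) across five concentrations, with parallel uninfected cells. Lack of protection may reflect toxicity.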

| SMILES | EC50 [µM] | IC50 [µM] | outcome |
| --- | --- | --- | --- |
| Cn1nc(-c2ccccc2)c(N=[N+]=[N-])cc1=O | > 200 | > 200 | – |
| Cc1ccc(C(=O)CCC2C(=O)CC(C)(C)CC2=O)cc1 | > 91.2 | 64.6 | – |
| O=C1[C@H]2ON(c3ccccc3)C(c3ccccc3)[C@H]2C(=O)N1c1ccc(Cc2ccc(N3C(=O)[C@@H]4ON(c5ccccc5)C(c5ccccc5)[C@@H]4C3=O)cc2)cc1 (some centres undefined) | > 13.2 | > 13.2 | – |
| Cc1cc(S(=O)(=O)Nc2n[nH]c(Nc3ccc(Cl)cc3)n2)c(S)cc1Cl | > 100 | > 100 | – |
| CN1CCC23c4c5cc(-c6cc7c8c(c6O)OC6C(O)C=CC9C(C7)N(C)CCC896)c(O)c4OC2C(O)C=CC3C1C5 (centres undefined) | – | – | inactive |
| Clc1cc2c(c3ncccc13)OCN(Cc1ccccc1)C2 | > 200 | 1.02 | – |
| CC1OC(n2cnc3c(=O)[nH]cnc32)C(O)C(O)C1O (centres undefined) | > 200 | > 200 | – |
| COC1C(O)CC(=O)OC(C)C/C=C/C=C/C(OC2CCC(N(C)C)C(C)O2)C(C)CC(CC=O)C1OC1OC(C)C(OC2CC(C)(O)C(O)C(C)O2)C(N(C)C)C1O (centres undefined) | > 200 | > 200 | – |
| Oc1ccc(-c2nc(-c3ccc(F)cc3)c(-c3ccc4ccccc4n3)[nH]2)cc1 | > 200 | 21.4 | – |
| c1ccc(-c2cnnc3c4ccccc4nn23)cc1 | > 200 | > 200 | – |
| Cc1cc(C)c(COC(=O)NS(=O)(=O)Nc2ccccc2)c(C)c1 | > 200 | 43.7 | – |
| [Ni].c1c[nH]cn1.c1c[nH]cn1.c1c[nH]cn1.c1c[nH]cn1.c1c[nH]cn1.c1c[nH]cn1 | > 66.1 | > 66.1 | – |
| OCCN1CC2CCCC1O2 (centres undefined) | > 1580 | > 1580 | – |
| CCOC(=O)C1CCC(=O)N1C(=O)c1ccccc1 (centres undefined) | > 200 | > 200 | – |
| O=C1C=C(N2CCCC2)c2cc(N3CCCC3)ncc2C1=O | – | – | inactive |
| CC1CCOC(=O)/C=C/C=C/C(=O)OC2CC3OC4C5OC5(C)C(O)CC4(COC(=O)C1O)C2(C)C31CO1 (centres undefined) | > 2 | 0.0468 | – |
| Nc1nc(SSc2nc(N)nc3c2ncn3C2CC(O)C(CO)O2)c2ncn(C3CC(O)C(CO)O3)c2n1 (centres undefined) | > 200 | 9.33 | – |
| CCOc1ccc(NC(=O)CC2Sc3ccccc3NC2=O)cc1 (centres undefined) | > 11 | > 11 | – |
| CC(=O)Nc1ccc(/C=C2\C(=O)NC(=S)N2/C=C(\C#N)c2ccc([N+](=O)[O-])cc2)cc1 | > 200 | 72.4 | – |
| Nc1ncnc2c1ncn2C1CCC(CO)OC1 (centres undefined) | > 200 | > 200 | – |
| O=C(NC/C=C/Br)NC1CCNc2ccccc21 (centres undefined) | > 200 | 14.1 | – |

| SMILES | EC50 [µM] | IC50 [µM] | outcome |
| --- | --- | --- | --- |
| Cc1nc2c(N)n[nH]c(=O)n2n1 | > 200 | > 200 | – |
| O=C(Nc1ccc(C2=NCC(O)CN2)cc1)c1ccc(C(=O)Nc2ccc(C3=NCC(O)CN3)cc2)cc1 (centres undefined) | 12.9 | > 200 | – |
| CN(Cc1c(S)ccc2ccccc12)Cc1c(S)ccc2ccccc12 | > 100 | 17 | – |
| COC(=O)C1=C(C(=O)OC)C2(C3C(SC)=CC(C)(C)CC3S1)N(Cc1ccccc1)CCN2Cc1ccccc1 (centres undefined) | > 9.12 | > 9.12 | – |
| CCCCSC1CCSc2c1ccc1ccccc21 (centres undefined) | – | – | inactive |
| COC(=O)C(/C(=N/N)C(=O)Nc1cc(Cl)c(Cl)cc1Cl)c1nc2ccc(Cl)cc2[nH]c1=O (centres undefined) | > 50.1 | > 50.1 | – |
| COc1cc(C2C(Cl)C(=O)N2NC(=O)c2ccc(N)cc2)ccc1O (centres undefined) | > 200 | 53.7 | – |
| O=C1NC(=O)C2(CC2)C(=O)N1 | > 200 | 13.2 | – |
| CC(=O)NC(C)(C)C1CCC(C)CC1 (centres undefined) | > 200 | > 200 | – |
| O=C1OC2CCCC1O2 (centres undefined) | > 200 | > 200 | – |
| S=c1[nH]nc(COc2ccc(Cl)cc2)o1 | > 204 | > 204 | – |
| C=CC(C)(C)N1c2ccccc2[C@]2(O)C[C@@H]3C(=O)N4/C=C\C(C)(C)c5[nH]c6ccccc6c5/C=C\4C(=O)N3[C@H]12 | – | – | inactive |
| COC(=O)/C(C#N)=C1\NC(=O)c2ccccc21 | > 83.2 | > 83.2 | – |
| CC(C)=CCc1c(O)cc(O)c2c1OC(c1ccc(O)cc1)C(O)C2=O (centres undefined) | > 363 | 17.8 | – |
| CCOC(=O)c1[nH]n(-c2ccccc2)c(=O)c1C=NC(=S)C(N)=S | > 200 | 33.9 | – |
| CCN(CC)/[N+]([O-])=N/OC | – | – | inactive |
| COc1ccccc1/C=C1\N=C(C)OC1=O | – | – | inactive |
| CC(=O)[O-].COc1cccc(/C=N\[N-]C(=O)c2ccncc2)c1.[Cu+2].[OH3+].[OH3+].c1cnc2c(c1)ccc1cccnc12 | > 200 | 61.7 | – |
| CSc1c(C#N)c(O)n(-c2ccc(C)cc2)c(=O)c1C#N | > 115 | 102 | – |
| S=c1sc2ccccc2n1CCSSCCn1c(=S)sc2ccccc21 | > 200 | 191 | – |
| N#CSCc1nc2ccc(Cl)cc2c(-c2ccccc2)[n+]1[O-] | > 55 | 8.91 | – |

| SMILES | EC50 [µM] | IC50 [µM] | outcome |
| --- | --- | --- | --- |
| N#Cc1ccc(N(O)C(=O)c2ccccc2)cc1 | > 200 | 46.8 | – |
| CN(C)CCN(C)CC(O)CO (centres undefined) | – | – | inactive |
| COc1cc(CC2c3cc(OC)c(OC)cc3CCN2C)c(Oc2cc3c(cc2OC)-c2c(OC)c(OC)c(OC)c4c2C(C3)N(C)CC4)cc1OC (centres undefined) | – | – | inactive |
| COC(=O)C1Cc2c(C)cccc2C1=O (centres undefined) | > 200 | 110 | – |
| COCCCNC(=O)CC(=O)NCCCOC | > 1000 | > 1000 | – |
| CCCCCC#CC1OC12CCCCC2 (centres undefined) | > 126 | > 126 | – |
| CCCCCCCCCC=C(c1cc(Cl)c(OC)c(C(=O)OC)c1)c1cc(Cl)c(OC)c(C(=O)OC)c1 | > 23.4 | > 23.4 | – |
| O=C(O)c1ccccc1-c1c2cc([N+](=O)[O-])c(=O)c(Br)c-2oc2c(Br)c(O)c([N+](=O)[O-])cc12 | > 316 | 8.13 | – |
| CCCCNC(=S)Nc1nc(C(=O)NNC(=O)c2ccccc2)cs1 | > 200 | 11.2 | – |
| C[C@H]1C(=O)CC[C@]2(C)CCC(C(C)(C)O)CC12O (some centres undefined) | – | – | inactive |
| CCCCC(C)C(OC(=O)CC(CC(=O)O)C(=O)O)C(CC(C)CC(O)CCCCC(O)CC(O)C(C)N)OC(=O)CC(CC(=O)O)C(=O)O (centres undefined) | – | – | inactive |
| Nc1c(C(=O)Nc2ccc(C3=NCCN3)cc2)cccc1C(=O)Nc1ccc(C2=NCCN2)cc1 | > 110 | 67.6 | – |
| CCCCCCCCCCC(O)C1CCC(C(O)CCC(O)C2CCC(CCCCCCC[C@H](O)CC3=C[C@@H](C)OC3=O)O2)O1 (some centres undefined) | > 7.76 | 0.00245 | – |
| C=CCNC(=O)NC(=O)CSC1=NNC2(C(=O)N1)c1ccccc1-c1ccccc12 | > 200 | 29.5 | – |
| COc1ccc(N/N=C/C2=CC(C)(C)C(C#N)(C#N)C(O)=C2C#N)cc1 | > 200 | 28.2 | – |
| Cc1cccc(C)c1NC(=O)CCc1nnc2s/c(=C\c3ccc(Cl)cc3)c(=O)n12 | > 1.7 | > 1.7 | – |
| O=C(Nc1ccc(Cl)cc1C(F)(F)F)C(=O)Nn1c(=S)[nH]c2ccccc2c1=O | > 151 | > 151 | – |
| NC(CSS(=O)(=O)CC(N)C(=O)O)C(=O)O (centres undefined) | – | 63.1 | inactive |
| CC(=O)OCC1(CNc2nc(N)ncc2C#N)CC(CCc2ccccc2)C1 (centres undefined) | > 200 | 17.4 | – |
| CCN=C(NC(=O)c1ccccc1F)SCSC(=NCC)NC(=O)c1ccccc1F | > 200 | 55 | – |
